Laboratory results as given in patent publication EP0536208B1, “1,2-DIHYDRO-3H-DIBENZISOQUINOLINE-1,3-DIONE ANTICANCER AGENTS” (RESEARCH CORPORATION TECHNOLOGIES, INC., priority 1990, dated 1992).

What was measured:
[1] = system: 205p14; experiment: Activity against human colon tumor cells (MTT assay, 3 day drug exposure); assay type: cell-based; settings: cells plated 24 hr. prior to drug addition, read-out: Concentration for 50% inhibition of colony formation for human colon tumors
Protocol: (§1) For example, the compounds of the present invention were evaluated for cytotoxic activities in cloned human colon carcinomas. The clonogenic assays were conducted in accordance with the procedure described hereinbelow: 1) Colony Forming Assays in Soft Agar: Fresh human or murine tumors are disaggregated into single cell suspensions using mechanical, hypoosmotic and/or enzymatic (trypsin) methods. The single cells (about 5 X 10^4-10^5) are plated in 35 mm plastic petri dishes onto a 1 ml "feeder layer" of 0.3% agar dissolved in growth medium containing 5-10% vol/vol of heat-inactivated fetal bovine serum, molten 0.3% agar and the antibiotics penicillin (100 u/mL) and streptomycin (100 ug/mL). Drug exposures can be performed for one hour or continuously (drugs added to final plating medium). Tumor cell colonies > 60 uM in size are counted by automated image analysis after 10-20 days of incubation in a humidified, 5-10% CO2-gassed environment maintained at 37°C. Inhibition of colony formation is calculated based on comparisons to control (untreated) plates wherein the growth of hundreds of colonies/plate is typical. (Salmon SE, et al., N Engl J Med 298(24):1321-1327, 1978).
(§2) Compounds of the present invention were tested for their in vitro activity in tumor cells sensitive and resistant to standard anti-cancer agents. The tumor cell lines used in this protocol are 8226 human Myeloma^1; 8226/Dox-40^2, L-1210/Murine Leukemia, multidrug resistant L-210/^3, 2780 Human Ovarian Cancer and 2780/AD^4. Each of these resistant cell lines is known as a multidrug resistant or "MDR" cell line. These cell lines produce a 170,00 molecular weight membrane protein termed the P-glycoprotein which acts as an active drug efflux pump. Thus, once a cell produces the P-glycoprotein, it has the capability of pumping out of the cell a large variety of unrelated natural products. […] The protocol for measuring the effectiveness of compounds of the present invention is as follows: 2) In Vitro Tumor Cell Viability Assays Using MTT-Dye: Tumors are processed into a single cell suspension as described above. The cells are plated at a concentration of 3-5 X 10^4/1 mL well into plastic 96-well plates. Growth medium containing 5-10% (vol/vol) heat-inactivated fetal bovine serum and penicillin/streptomycin (as above) is added prior to incubation at 37°C for six days. Afterwards the medium containing the drug is removed, the cells are "washed" by centrifugation in fresh medium or phosphate-buffered saline (pH 7.4). A tetrazolium dye is then added (3,4,5-dimethylthiazol-2-yl)-2,5-diphenyl tetrazolium bromide (MTT). This dye forms a colored formazan product upon activation by mitochondrial reductases in viable cells. Typically, the formazan product is solubilized in acid-propanol or DMSO. The intensity of the color is proportional to viable cell numbers and this is quantitated by spectrophotometric absorbance ([…]) on a micro ELISA plate reader. Test results are calibrated in % control absorbance from untreated tumor cells (Mossman T: J Immunol Meth 65:55-63, 1983). Using the above procedure, Compound 1 was tested for its cytotoxic activity with respect to various tumor cell lines.

[2] = system: LOVOp32; experiment: as above; assay type: cell-based; settings: cells plated 24 hr. prior to drug addition, read-out: Concentration for 50% inhibition of colony formation for human colon tumors
Protocol: as §1, §2

IC50 [1]: 400 nM
IC50 [2]: 300 nM
SMILES: CN(C)CCN1C(=O)c2cccc3cc4ccccc4c(c23)C1=O [Compound 1, 2-[2'-(dimethylamino)ethyl]-1,2-dihydro-3H-dibenz(deh)isoquinoline-1,3-dione]
